The results in this text go back to ChEMBL document CHEMBL1201862, “PubChem BioAssay data set” (2004).

Data set [1] can be described thus: decrease of insulin promoter-GFP reporter – imaging, high-content screening, mouse beta cells (AID 1628). In kind it is functional. To be noted: MIN6.
Data set [2] is described as follows: MIN6 cell viability loss – mouse insulinoma, cytotoxicity control, dose response (AID 2122).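 Note: confirmatory high-throughput counterscreen run to flag cytotoxic compounds.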 Format: functional.
Data set [3] addresses Eukaryotic translation initiation factor 4E (Mus musculus, UniProt P63073). Nature of the data set: blockers of eIF4G binding by eIF4E – biochemical, TR-FRET, dose response (AID 855).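 Note: potency for disrupting eIF4E binding to eIF4GI seen as loss of FRET.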 In kind it is functional.
In data set [4] the target is Glyceraldehyde-3-phosphate dehydrogenase (Homo sapiens, UniProt P04406).
Sequence of Glyceraldehyde-3-phosphate dehydrogenase (P04406 whole entry): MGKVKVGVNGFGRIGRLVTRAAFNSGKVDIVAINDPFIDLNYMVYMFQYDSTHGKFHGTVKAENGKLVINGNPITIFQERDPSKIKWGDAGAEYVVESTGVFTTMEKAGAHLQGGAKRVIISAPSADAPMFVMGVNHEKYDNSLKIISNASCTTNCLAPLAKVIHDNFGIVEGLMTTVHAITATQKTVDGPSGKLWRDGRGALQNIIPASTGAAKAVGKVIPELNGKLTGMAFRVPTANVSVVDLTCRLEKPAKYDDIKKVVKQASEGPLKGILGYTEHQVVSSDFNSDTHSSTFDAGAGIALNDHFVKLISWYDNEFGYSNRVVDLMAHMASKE
In data set [5] the target is T1, Alkaline phosphatase, tissue-nonspecific isozyme (Homo sapiens, UniProt P05186).
T1 sequence (P05186 whole entry): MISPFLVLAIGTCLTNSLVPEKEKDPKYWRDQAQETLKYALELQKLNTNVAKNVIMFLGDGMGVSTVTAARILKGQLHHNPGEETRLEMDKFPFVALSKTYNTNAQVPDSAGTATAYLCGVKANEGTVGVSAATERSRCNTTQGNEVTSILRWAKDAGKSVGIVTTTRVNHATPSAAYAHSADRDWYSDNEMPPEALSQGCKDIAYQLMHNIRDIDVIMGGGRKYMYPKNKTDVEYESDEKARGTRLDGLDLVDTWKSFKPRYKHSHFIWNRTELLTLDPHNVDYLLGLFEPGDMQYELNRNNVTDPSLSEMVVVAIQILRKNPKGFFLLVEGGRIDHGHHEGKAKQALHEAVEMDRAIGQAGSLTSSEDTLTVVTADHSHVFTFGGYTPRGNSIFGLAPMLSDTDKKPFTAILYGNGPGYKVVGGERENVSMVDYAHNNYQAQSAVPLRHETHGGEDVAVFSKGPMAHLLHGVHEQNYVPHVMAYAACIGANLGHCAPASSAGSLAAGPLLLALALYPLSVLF
Briefly: potency against alkaline phosphatase TNAP – biochemical, luminescent, dose response, SAR follow-up (AID 1056).

A further data set has as its target T2, Protein Tat (Human immunodeficiency virus type 1 group M subtype B (isolate HXB2)(HIV-1), UniProt P04608).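 Note: tat binding to TAR RNA read out by fluorescence polarization.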
T2 sequence (P04608 whole entry): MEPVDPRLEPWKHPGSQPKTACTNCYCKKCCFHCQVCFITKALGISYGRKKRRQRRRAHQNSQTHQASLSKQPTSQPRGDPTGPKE
In kind it is functional.

Data set [6] concerns the target DNA dC->dU-editing enzyme APOBEC-3A (Homo sapiens, UniProt P31941). Nature of the data set: Dose Response confirmation of small molecule APOBEC3A DNA Deaminase Inhibitors via a fluorescence-based single-stranded DNA deaminase assay. [Related pubchem assays (depositor defined):AID493011, AID493024]. In kind it is functional.
Data set [7] deals with DNA dC->dU-editing enzyme APOBEC-3G (Homo sapiens, UniProt Q9HC16). In kind it is functional.
Sequence of DNA dC->dU-editing enzyme APOBEC-3G (Q9HC16 whole entry): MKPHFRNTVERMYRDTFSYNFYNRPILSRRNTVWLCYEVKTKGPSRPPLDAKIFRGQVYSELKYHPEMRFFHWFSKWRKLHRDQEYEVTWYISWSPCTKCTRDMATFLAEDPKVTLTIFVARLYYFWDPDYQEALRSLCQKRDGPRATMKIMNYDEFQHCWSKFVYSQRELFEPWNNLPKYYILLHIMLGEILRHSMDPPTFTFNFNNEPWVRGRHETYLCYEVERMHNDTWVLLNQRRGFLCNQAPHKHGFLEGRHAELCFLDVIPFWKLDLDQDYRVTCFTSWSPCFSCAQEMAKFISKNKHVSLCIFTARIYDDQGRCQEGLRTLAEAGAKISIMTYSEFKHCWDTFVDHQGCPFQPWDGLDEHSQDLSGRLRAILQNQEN
In the next data set the target is Cytochrome P450 2C9 (Homo sapiens, UniProt P11712).
Sequence of Cytochrome P450 2C9 (P11712 whole entry): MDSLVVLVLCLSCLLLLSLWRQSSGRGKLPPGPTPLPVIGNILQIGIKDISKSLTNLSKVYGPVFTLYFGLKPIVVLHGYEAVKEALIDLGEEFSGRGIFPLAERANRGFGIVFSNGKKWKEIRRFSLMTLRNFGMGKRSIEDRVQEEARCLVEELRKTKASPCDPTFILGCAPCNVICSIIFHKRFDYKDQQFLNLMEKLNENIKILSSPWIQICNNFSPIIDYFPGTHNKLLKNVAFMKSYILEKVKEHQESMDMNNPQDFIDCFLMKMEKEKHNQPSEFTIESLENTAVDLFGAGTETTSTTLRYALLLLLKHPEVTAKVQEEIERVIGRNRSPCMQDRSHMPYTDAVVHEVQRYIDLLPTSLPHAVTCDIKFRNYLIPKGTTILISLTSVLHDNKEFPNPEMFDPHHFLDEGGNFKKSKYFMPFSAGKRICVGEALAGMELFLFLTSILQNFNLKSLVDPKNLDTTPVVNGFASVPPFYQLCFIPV
Another data set addresses Cytochrome P450 2C19 (Homo sapiens, UniProt P33261). Briefly: Cytochrome panel assay with activity outcomes. Panel member name: p450-cyp2c19 Compounds with AC50 equal or less than 10 uM are considered active. Format: functional.
The target in the next data set is T3, Bcl-2-like protein 10 (Homo sapiens, UniProt Q9HD36).
T3 sequence (Q9HD36 whole entry): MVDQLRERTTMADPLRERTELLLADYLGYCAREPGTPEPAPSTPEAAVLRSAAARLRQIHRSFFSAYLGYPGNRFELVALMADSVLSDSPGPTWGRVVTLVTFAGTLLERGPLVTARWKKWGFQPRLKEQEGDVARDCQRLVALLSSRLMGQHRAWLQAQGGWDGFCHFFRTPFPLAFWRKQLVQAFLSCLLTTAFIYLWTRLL
Briefly: Bcl-B/TR3 peptide binding disruption – biochemical, fluorescence polarization, FITC-TR3 peptide, selectivity assay for Bfl-1 inhibitor project, primary screen (AID 748).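 Note: fluorescence polarization from a fluorescein-labelled TR3 peptide binding purified Bcl-B.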

In the next data set the test system is HEK293. Briefly: EBV LMP1 TES2 canonical NF-kB signalling blockers – cell-based, HEK293, luciferase, cherry-pick, dose response (AID 588343). Format: functional. The conditions noted are these: Homo sapiens.
A short description of data set [8]: A549 cell cytotoxicity, dose response, cytotoxicity control, plate reader, cherry-pick, antagonist series (AID 743412). Format: functional, cell-based.
Data set [9] can be described thus: viability loss in HEK293 cells – cell-based, plate reader, cherry-picked samples, cytotoxicity control, dose response (AID 743446). Format: functional.
A short description of data set [10]: blockade of melanocortin 4 receptor signaling – cell-based, plate reader, cherry pick, counter-screen for LGR2 antagonist project, dose response (AID 743444).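 Note: transfected HEK 293 cells stimulated with alpha-MSH peptide; potency of inhibitors of the alpha-MSH evoked signal.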 Format: functional.
Data set [11] has as its target Luciferin 4-monooxygenase (Photinus pyralis, UniProt P08659). Briefly: inhibition of purified Photinus pyralis luciferase – biochemical, luminescence, dose response (AID 1891).
Data set [12] is described as follows: blockers of bursicon-stimulated LGR2 cAMP reporter – cell-based, HEK293, CRE-luciferase reporter, cherry pick, set 2, dose response (AID 743343).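 Note: transfected cells were stimulated with diluted bursicon conditioned medium after compound addition.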 In kind it is functional.
A short description of data set [13]: Luminescence Cell-Based Dose Confirmation HTS to Identify Inhibitors of Platelet Dense Granule Release. [Related pubchem assays: 1663 (Primary HTS), 1678 (Summary of Project)]. In kind it is functional.
Data set [14] is described as follows: toxicity toward HepG2 liver cells – cell-based, plate reader, cherry-pick, antagonist series, cytotoxicity control, dose response (AID 743416). Format: functional.
Data set [15] is described as follows: Luminescence-based cell-based high throughput dose response assay to identify activators of the DAF-12 from the parasite S. stercoralis (ssDAF-12). Format: functional.
Data set [16] deals with T4, Oxysterols receptor LXR-beta (Homo sapiens, UniProt P55055).
T4 sequence (P55055 whole entry): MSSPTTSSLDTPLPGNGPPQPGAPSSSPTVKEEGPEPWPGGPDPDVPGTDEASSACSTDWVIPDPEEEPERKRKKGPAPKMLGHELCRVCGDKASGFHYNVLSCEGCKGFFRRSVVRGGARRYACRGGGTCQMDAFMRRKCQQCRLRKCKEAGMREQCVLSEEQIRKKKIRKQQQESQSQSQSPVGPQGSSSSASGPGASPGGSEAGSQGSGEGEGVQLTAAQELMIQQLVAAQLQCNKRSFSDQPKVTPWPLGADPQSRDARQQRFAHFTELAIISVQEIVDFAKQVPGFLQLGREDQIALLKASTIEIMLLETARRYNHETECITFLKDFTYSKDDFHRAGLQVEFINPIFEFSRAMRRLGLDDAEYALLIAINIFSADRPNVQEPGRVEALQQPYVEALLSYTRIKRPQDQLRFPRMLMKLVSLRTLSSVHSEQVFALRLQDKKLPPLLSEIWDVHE
Briefly: LXR agonists, Gal4 luciferase reporter, dose response, counter-screen for ssDAF-12 agonist project, cell-based, luminescence, HEK293, S. stercoralis campaign (AID 720737). Format: functional. To be noted: read-out: IC50 (the source's name).

The nature of data set [17]: cells.
Data set [18] deals with T4, Oxysterols receptor LXR-beta. Format: functional, cell-based.
Data set [19] addresses T5, Carboxy-terminal domain RNA polymerase II polypeptide A small phosphatase 1 (Homo sapiens, UniProt Q9GZU7).
T5 sequence (Q9GZU7 whole entry): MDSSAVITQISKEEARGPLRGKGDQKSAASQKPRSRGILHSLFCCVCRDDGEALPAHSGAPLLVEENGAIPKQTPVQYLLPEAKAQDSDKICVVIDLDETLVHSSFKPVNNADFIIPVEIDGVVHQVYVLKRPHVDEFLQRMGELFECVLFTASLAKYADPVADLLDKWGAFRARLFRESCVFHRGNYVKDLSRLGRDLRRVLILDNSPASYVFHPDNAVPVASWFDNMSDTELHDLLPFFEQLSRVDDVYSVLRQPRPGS
Briefly: CTDSP1 inhibitors, concentration-response, biochemical, absorbance readout, ultra-high-throughput screen actives (AID 540297). Format: functional.

The target of a further data set is Prothrombin (Homo sapiens, UniProt P00734). Briefly: Thrombin 1536 HTS Dose Response Confirmation. [Related pubchem assays: 1046 (Thrombin 1536 HTS; hits were confirmed in this assay)]. In kind it is functional.
The nature of data set [20]: HepG2 cell cytotoxicity, dose response, cytotoxicity control for non-replicating M. tuberculosis project (AID 489018). Format: functional. To be noted: Mycobacterium tuberculosis.
Data set [21] in a line: cells. Format: functional.
Data set [22] in a line: Dd2 malaria parasite growth inhibition potency – SYBR Green, dry powder samples, dose response (AID 1159566).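 Note: potency for growth inhibition with lower SYBR green DNA signal.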 In kind it is functional, cell-based.
Data set [23] is described as follows: growth inhibition of PfATP4-mutant resistant parasites – NITD609-resistant line, SYBR Green, dry powder, dose response (AID 1159571).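 Note: parasites synchronized at ring stage by sorbitol before testing.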 In kind it is functional, cell-based.
The nature of data set [24]: intracellular Trypanosoma cruzi inhibitors in host cells – cell-based, plate reader, cherry-pick samples, set 3, dose response (AID 651818).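 Note: compounds incubated with infected cells for about four days.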 Format: functional.
A short description of data set [25]: P. falciparum Dd2 growth inhibitors, dose response, SYBR Green, cherry-picked samples (AID 1159567). Format: functional, cell-based.
Data set [26] is described as follows: growth inhibition of yeast DHODH-expressing 3D7 parasites – SYBR Green, dry powder samples, dose response (AID 1159570).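 Note: parasite growth measured after 72 hours of compound exposure.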 Format: functional, cell-based.
The nature of data set [27]: toxicity to human hepatoma HepG2 cells – cell-based, cherry-picked samples, cytotoxicity control, dose response (AID 1159577). Format: functional.

Activity calls are given as the source filed them. A value given as a limit tells only on which side of the number the result lay.

Sequence of DNA dC->dU-editing enzyme APOBEC-3A (P31941 whole entry): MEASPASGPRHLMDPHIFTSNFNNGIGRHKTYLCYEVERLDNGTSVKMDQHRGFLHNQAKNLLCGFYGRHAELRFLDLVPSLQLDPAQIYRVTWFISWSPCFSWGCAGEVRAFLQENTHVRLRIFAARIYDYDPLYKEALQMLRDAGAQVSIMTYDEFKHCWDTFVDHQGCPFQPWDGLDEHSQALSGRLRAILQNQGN
Sequence of Eukaryotic translation initiation factor 4E (P63073 whole entry): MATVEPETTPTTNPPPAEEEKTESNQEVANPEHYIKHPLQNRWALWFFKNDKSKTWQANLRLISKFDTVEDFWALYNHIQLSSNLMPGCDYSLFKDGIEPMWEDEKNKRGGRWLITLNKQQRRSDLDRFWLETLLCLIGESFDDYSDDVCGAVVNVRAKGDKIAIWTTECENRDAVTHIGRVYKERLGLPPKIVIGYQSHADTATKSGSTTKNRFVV
Sequence of Luciferin 4-monooxygenase (P08659 whole entry): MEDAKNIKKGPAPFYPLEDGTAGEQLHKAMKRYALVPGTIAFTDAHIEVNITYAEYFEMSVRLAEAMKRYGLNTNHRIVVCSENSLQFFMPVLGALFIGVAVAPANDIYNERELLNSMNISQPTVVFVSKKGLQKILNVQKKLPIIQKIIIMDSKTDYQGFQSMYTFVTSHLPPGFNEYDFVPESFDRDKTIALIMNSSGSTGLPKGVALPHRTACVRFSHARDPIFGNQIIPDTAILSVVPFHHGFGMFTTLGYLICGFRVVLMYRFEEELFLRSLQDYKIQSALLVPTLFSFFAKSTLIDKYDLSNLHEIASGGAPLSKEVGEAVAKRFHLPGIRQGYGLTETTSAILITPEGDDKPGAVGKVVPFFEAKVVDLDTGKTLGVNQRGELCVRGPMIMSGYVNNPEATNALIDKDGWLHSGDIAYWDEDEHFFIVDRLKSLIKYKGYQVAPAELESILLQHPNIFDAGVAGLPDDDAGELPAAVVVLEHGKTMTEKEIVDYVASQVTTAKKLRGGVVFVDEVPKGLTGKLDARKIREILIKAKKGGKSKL
Sequence of Cytochrome P450 2C19 (P33261 whole entry): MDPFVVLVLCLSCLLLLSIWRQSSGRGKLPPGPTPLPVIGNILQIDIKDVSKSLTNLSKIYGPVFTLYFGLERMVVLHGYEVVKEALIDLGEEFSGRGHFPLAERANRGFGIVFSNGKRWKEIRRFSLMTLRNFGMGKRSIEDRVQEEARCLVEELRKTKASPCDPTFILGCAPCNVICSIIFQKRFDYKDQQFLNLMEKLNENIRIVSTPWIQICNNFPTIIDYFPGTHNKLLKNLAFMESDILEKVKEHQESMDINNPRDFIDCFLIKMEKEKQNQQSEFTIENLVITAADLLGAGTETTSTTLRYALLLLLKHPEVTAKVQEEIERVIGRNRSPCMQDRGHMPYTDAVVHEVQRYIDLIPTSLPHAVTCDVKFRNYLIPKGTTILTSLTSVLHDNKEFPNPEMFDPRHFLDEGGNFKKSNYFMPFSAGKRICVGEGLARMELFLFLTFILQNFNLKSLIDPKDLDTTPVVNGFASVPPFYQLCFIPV

As to `Cc1ccc(-n2c(SCC(=O)NCC3CCCO3)nc3nnc(C)c-3c2N)cc1Cl` (centres undefined), the IC50 was 2.21 µM (active) in data set [1] and 4.6 µM (active) in data set [2].
`O=c1cc(CCl)nc2sc3ccccc3n12`: the IC50 in data set [3] is 50 µM (inactive).
`O=C1[C@H]2CC=CC[C@H]2C(=O)N1c1nnc(Cc2ccc(F)cc2)[nH]1`: the results for the IC50 in data set [4] and in data set [5] were > 100 µM (not active) and 4.2 µM (active), respectively.
Regarding `Cc1cc(C)c(S(=O)(=O)NCC2CCC(C(=O)N3CCC4(CC3)OCCO4)CC2)c(C)c1` (centres undefined), at Protein Tat, the IC50 was > 100 µM (active).
`C[n+]1ccccc1/C=C/c1ccccc1Cl`: the IC50 in data set [6] was 2.25 µM (active); in [7] it was 2.41 µM (active).
With `Cc1ccc(Cn2cnc3ccccc32)cc1`, the values for the IC50 in [1] and in data set [2] were 4.89 µM (active) and 4.02 µM (active), respectively.
With `COc1ccc(CN2CCN(C(=O)CC(C)C)CC2)c(OC)c1OC`, in data set [3], the IC50 is > 64 µM (inactive). Also, the AC50 entry at Cytochrome P450 2C9 is “inconclusive”; at Cytochrome P450 2C19, 25.1 µM (inconclusive).
With `Cc1cc[n+]2c3c(cccc13)CCC2`, the IC50 on Bcl-2-like protein 10 was 63.2 µM (inactive).
Regarding `CCOc1ccc(C(=O)Nc2cc(C)ccn2)cc1`, the half-maximal activity concentration (AC50) with HEK293 is 2.17 µM (active); in data set [8], 21 µM (active); in [9], 22.1 µM (active); in data set [10], 2.97 µM (active); in [12], 4.55 µM (active); in data set [14] it was 24.6 µM (active). The EC50 was 1.19 µM (active) in [11] and 2.45 µM (active) in data set [13].
Take `COc1ccc(CCNC(=O)/C=C/c2ccco2)cc1`: the IC50 at Protein Tat was > 100 µM (active).
With `COc1ccc(N2CC(C(=O)NCc3ccco3)CC2=O)cc1` (centres undefined), the figures for the IC50 in data set [6] and in [7] were 39.6 µM (active) and 21.2 µM (active), respectively.
Regarding `COc1cc(-c2nc3ccccc3c(=O)n2N)cc(OC)c1OC`, the IC50 in [15] was > 67.5 µM (inactive). In addition, in data set [16], the EC50 was > 67.5 µM (inactive).
Consider `COc1ccc(-c2cn3ccc4ccccc4c3n2)cc1`, for which the IC50 in data set [15] is > 67.5 µM (inactive). For the same molecule, the EC50 (in [16]; in the data set “cells [17]”; in data set [18]) was > 67.5 µM (inactive) in each case.
`Cc1cc(C(=O)NCc2ccc(C(=O)O)o2)c(C)o1`: the figures for the IC50 in data set [19], in [6] and in data set [7] were 4.04 µM (active), 31 µM (active) and 45.9 µM (active), respectively.
`COc1cccc(-c2cc(C(=O)Nc3c(C)nn(Cc4ccccc4)c3C)no2)c1`: the IC50 on Prothrombin is on record as > 50 µM (not active).
With `CCOc1ccc(C(=O)Nc2ccc(N3CCN(C)CC3)cc2)cc1Br`, the CC50 in data set [20] is > 20 µM (active). Moreover, the IC50 in “cells [21]” was 31.4 µM (active); at Bcl-2-like protein 10, 0.558 µM (active).
With `O=C1C(Cl)=C(Cl)C(=O)N1c1nnc(Cc2ccccc2)[nH]1`, the IC50 was > 100 µM (not active) in data set [4] and 3.24 µM (active) in [5].
On to `Cc1cc(O)c(/C=N/OCc2ccc(Cl)cc2Cl)c(=O)o1`, for which, in [3], the IC50 is 50 µM (inactive).
On to `C[C@@H]1CN([C@H](C)CO)C(=O)c2cccc(NC(=O)Nc3cccc4ccccc34)c2O[C@@H]1CN(C)C(=O)Nc1ccc(C(F)(F)F)cc1`, for which the AC50 in data set [22] is 1.37 µM (active); in [23], 1.21 µM (active); in data set [24] it was 7.71 µM (active); in data set [25], 1.59 µM (active); in data set [26], 1.15 µM (active).
On to `O=C(O)c1ccc(/N=C/c2nc(-c3ccco3)oc2O)cc1`, for which, on Prothrombin, the IC50 was > 50 µM (not active).
`COc1ccccc1C#Cc1ccc([C@H]2[C@@H](C#N)N(C(=O)C3CC3)[C@H]2CO)cc1`: the AC50 in data set [22] is 0.692 µM (active); in data set [23], 1.69 µM (active); in data set [26] it was 1.35 µM (active).
`CCCNC(=O)N1[C@H](CO)[C@H](c2ccc(C3=CCCCC3)cc2)[C@H]1CNC(C)C`: the results for the AC50 in data set [27] and in data set [25] were 39.6 µM (active) and 5.26 µM (active), respectively.
For `C[C@@H]1CN([C@@H](C)CO)C(=O)c2cc(C#CCc3ccccc3)cnc2O[C@H]1CN(C)CC1CCCC1`, the figures for the AC50 in data set [27] and in data set [25] were 14.2 µM (active) and 1.31 µM (active), respectively.
